Data on 2 compounds can be found in publication PMC8213057, “Targeting ALK2: An Open Science Approach to Developing Therapeutics for the Treatment of Diffuse Intrinsic Pontine Glioma” (Journal of Medicinal Chemistry, 2020).

One experiment deals with CAMKK1 (Homo sapiens, UniProt Q8N5S9). The settings on record: 1 μM; Run 1, Run 2.
Another experiment has as its target T1, Aurora C (Homo sapiens, UniProt Q9UQB9).
T1 sequence (Q9UQB9 1-309): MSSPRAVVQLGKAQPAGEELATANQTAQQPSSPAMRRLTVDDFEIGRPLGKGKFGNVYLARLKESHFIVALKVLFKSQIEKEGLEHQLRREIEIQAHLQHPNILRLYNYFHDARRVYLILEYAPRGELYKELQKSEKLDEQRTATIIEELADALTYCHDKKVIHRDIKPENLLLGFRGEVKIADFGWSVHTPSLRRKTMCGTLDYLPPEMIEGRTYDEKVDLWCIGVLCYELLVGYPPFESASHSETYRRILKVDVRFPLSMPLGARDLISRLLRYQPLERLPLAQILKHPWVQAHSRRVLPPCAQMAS
The settings on record: 1 μM; Run 1, Run 2.

The target in another experiment is SYK (Homo sapiens, UniProt P43405). The settings on record: 1 μM; Run 1, Run 2.
A further experiment has as its target WNK3 (Homo sapiens, UniProt Q9BYP7). Conditions: 1 μM; Run 1, Run 2.
The next experiment has as its target T2, ERK7/MAPK15 (Homo sapiens, UniProt Q8TD08).
T2 sequence (Q8TD08 1-544): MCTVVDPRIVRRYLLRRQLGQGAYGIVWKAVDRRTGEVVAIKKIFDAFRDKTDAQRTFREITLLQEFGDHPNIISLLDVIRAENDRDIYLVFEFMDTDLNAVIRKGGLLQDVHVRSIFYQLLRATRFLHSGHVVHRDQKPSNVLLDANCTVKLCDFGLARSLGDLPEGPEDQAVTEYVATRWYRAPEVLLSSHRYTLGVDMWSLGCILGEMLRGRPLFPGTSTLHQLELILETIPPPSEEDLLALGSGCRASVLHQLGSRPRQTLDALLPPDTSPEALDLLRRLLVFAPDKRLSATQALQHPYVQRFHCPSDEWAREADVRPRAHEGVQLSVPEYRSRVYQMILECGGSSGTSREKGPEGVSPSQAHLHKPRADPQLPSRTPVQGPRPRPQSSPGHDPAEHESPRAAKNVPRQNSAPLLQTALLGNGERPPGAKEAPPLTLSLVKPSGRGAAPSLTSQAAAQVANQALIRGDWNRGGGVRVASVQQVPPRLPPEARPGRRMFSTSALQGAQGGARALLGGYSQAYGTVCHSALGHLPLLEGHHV
The experiment in a line: biochemical. Conditions: read-out: % enzyme activity, 1 μM; Run 1, Run 2.

For a further experiment, the target named is T3, ARAF (Homo sapiens, UniProt P10398).
T3 sequence (P10398 1-606): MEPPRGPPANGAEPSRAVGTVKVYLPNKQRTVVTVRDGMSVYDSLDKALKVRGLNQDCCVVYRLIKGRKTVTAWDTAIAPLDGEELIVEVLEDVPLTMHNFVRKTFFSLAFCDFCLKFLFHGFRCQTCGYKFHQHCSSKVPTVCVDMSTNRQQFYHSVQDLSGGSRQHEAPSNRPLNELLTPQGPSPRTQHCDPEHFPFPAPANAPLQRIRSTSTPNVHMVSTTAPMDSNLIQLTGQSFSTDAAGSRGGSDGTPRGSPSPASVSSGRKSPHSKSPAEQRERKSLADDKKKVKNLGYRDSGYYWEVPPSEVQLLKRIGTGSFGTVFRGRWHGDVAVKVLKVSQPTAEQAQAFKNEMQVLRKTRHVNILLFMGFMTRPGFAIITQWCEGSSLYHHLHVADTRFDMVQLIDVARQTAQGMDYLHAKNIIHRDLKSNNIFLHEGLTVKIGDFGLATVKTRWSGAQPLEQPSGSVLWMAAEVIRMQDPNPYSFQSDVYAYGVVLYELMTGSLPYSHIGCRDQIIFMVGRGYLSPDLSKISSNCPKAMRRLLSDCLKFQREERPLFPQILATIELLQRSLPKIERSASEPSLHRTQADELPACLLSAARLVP
Kind of experiment: biochemical. Conditions: read-out: % enzyme activity, 1 μM; Run 1, Run 2.

Another experiment addresses T4, GLK/MAP4K3 (Homo sapiens, UniProt Q8IVH8).
T4 sequence (Q8IVH8 1-894): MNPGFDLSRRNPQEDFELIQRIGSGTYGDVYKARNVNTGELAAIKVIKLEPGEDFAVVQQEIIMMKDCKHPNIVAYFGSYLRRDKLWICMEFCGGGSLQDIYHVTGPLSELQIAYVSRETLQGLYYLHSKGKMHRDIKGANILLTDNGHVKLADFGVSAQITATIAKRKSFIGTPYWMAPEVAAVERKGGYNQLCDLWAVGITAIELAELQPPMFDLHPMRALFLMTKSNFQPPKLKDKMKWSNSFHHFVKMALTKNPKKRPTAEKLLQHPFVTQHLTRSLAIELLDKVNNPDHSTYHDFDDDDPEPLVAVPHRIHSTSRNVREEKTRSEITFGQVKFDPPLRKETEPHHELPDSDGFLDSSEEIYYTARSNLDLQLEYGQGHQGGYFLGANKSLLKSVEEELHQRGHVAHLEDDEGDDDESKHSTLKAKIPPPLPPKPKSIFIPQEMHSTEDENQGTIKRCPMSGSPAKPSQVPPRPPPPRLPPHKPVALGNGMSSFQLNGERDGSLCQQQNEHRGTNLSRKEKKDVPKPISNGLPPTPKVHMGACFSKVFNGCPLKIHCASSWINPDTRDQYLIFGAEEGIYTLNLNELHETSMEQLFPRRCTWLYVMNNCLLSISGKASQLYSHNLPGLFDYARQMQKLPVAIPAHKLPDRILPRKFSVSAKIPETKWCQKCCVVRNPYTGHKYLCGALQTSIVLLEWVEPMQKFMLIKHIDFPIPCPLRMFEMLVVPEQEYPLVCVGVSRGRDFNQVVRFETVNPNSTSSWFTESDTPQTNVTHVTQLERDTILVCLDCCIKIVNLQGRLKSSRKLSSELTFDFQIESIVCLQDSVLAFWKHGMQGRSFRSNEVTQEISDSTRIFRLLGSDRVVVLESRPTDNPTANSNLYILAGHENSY
Kind of experiment: biochemical. Conditions: read-out: % enzyme activity, 1 μM; Run 1, Run 2.

The target in another experiment is ALK (Homo sapiens, UniProt Q9UM73). The settings on record: 1 μM; Run 1, Run 2.
For a further experiment, the target named is PKN2/PRK2 (Homo sapiens, UniProt Q16513). The experiment in a line: biochemical. Conditions: read-out: % enzyme activity, 1 μM; Run 1, Run 2.
The target in another experiment is STK38L/NDR2 (Homo sapiens, UniProt Q9Y2H1). Conditions: 1 μM; Run 1, Run 2.
Sequence of STK38L/NDR2 (Q9Y2H1 whole entry): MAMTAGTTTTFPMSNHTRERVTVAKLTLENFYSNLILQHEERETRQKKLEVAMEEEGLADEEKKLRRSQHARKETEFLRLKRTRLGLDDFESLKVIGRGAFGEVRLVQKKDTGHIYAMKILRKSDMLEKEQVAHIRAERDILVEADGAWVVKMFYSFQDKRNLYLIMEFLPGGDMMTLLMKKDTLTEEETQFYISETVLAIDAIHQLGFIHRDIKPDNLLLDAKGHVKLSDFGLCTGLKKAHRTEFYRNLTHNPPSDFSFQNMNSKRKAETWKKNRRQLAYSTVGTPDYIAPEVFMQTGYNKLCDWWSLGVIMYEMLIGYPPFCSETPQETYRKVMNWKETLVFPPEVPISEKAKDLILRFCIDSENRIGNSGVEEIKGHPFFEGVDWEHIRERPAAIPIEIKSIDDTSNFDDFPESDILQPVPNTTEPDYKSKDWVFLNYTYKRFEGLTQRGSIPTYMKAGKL

Sequence of PKN2/PRK2 (Q16513 whole entry): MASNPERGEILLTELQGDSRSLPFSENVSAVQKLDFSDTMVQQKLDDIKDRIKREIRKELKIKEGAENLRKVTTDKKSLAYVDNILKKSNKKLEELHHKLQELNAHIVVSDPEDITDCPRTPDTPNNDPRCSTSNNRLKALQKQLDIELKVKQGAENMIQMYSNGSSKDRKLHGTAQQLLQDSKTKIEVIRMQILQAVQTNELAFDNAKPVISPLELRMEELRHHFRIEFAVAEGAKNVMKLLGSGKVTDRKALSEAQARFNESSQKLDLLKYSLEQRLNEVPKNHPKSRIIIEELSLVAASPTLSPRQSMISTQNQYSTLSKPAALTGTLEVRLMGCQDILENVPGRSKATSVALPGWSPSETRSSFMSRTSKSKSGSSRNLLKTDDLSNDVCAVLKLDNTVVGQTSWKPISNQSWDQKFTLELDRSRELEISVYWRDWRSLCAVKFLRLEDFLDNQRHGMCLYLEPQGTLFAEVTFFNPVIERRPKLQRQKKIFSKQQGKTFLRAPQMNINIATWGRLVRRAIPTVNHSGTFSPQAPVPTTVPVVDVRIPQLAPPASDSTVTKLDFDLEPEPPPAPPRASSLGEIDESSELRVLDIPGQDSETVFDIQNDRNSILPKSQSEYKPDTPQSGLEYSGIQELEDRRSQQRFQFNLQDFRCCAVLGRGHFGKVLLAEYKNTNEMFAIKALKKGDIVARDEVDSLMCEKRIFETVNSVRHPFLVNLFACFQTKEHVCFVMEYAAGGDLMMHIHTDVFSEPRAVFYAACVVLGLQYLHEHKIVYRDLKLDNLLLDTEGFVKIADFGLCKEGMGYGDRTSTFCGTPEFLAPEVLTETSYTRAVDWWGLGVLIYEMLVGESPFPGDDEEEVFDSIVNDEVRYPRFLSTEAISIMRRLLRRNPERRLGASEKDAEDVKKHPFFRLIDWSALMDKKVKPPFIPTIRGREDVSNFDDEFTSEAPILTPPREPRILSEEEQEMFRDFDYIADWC
Sequence of WNK3 (Q9BYP7 whole entry, species assumed): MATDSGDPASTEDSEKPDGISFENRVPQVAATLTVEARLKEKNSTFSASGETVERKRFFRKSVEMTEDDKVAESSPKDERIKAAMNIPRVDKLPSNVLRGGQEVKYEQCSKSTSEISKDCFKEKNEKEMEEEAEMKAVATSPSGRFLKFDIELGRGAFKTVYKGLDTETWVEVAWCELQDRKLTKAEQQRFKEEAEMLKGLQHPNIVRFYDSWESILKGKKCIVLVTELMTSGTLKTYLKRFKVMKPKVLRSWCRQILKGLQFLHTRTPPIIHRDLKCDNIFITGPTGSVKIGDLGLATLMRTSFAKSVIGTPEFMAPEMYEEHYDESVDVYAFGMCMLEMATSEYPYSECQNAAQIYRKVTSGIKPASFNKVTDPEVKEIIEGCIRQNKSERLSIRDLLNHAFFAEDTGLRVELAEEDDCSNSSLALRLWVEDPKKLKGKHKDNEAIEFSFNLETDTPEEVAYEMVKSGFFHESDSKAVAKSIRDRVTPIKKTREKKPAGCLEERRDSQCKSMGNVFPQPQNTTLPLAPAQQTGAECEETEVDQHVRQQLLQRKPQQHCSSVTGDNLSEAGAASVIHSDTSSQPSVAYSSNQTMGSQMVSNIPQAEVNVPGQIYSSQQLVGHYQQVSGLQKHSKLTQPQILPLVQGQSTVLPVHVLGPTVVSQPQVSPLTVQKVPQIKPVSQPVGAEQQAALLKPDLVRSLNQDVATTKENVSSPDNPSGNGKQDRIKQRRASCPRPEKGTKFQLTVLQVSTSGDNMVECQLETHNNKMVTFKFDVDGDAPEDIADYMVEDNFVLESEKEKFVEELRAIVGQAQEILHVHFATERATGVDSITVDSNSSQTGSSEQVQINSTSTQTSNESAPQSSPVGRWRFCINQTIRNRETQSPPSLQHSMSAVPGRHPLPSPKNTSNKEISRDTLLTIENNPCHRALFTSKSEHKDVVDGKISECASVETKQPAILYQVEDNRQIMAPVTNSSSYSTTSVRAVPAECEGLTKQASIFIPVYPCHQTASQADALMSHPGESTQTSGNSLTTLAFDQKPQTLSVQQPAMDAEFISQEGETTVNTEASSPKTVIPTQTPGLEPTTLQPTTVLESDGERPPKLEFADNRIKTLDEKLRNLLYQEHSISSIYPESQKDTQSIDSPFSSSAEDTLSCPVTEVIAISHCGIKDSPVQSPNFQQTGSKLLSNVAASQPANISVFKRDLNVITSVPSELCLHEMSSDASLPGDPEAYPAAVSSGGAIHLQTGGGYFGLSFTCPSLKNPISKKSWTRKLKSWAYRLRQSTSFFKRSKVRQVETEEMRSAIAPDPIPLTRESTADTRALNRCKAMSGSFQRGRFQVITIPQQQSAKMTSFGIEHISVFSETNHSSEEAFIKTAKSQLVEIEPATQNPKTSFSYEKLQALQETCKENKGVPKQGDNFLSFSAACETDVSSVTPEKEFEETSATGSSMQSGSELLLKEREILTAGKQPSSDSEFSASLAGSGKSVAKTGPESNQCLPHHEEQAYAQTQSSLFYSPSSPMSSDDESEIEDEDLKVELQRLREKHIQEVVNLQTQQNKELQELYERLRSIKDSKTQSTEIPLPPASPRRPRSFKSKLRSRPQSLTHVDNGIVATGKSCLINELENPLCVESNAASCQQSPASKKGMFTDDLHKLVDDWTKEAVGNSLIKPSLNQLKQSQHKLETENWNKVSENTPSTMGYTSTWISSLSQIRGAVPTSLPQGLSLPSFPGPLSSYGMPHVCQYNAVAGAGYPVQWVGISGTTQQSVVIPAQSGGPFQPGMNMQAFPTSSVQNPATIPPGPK
Sequence of ALK (Q9UM73 19-1620): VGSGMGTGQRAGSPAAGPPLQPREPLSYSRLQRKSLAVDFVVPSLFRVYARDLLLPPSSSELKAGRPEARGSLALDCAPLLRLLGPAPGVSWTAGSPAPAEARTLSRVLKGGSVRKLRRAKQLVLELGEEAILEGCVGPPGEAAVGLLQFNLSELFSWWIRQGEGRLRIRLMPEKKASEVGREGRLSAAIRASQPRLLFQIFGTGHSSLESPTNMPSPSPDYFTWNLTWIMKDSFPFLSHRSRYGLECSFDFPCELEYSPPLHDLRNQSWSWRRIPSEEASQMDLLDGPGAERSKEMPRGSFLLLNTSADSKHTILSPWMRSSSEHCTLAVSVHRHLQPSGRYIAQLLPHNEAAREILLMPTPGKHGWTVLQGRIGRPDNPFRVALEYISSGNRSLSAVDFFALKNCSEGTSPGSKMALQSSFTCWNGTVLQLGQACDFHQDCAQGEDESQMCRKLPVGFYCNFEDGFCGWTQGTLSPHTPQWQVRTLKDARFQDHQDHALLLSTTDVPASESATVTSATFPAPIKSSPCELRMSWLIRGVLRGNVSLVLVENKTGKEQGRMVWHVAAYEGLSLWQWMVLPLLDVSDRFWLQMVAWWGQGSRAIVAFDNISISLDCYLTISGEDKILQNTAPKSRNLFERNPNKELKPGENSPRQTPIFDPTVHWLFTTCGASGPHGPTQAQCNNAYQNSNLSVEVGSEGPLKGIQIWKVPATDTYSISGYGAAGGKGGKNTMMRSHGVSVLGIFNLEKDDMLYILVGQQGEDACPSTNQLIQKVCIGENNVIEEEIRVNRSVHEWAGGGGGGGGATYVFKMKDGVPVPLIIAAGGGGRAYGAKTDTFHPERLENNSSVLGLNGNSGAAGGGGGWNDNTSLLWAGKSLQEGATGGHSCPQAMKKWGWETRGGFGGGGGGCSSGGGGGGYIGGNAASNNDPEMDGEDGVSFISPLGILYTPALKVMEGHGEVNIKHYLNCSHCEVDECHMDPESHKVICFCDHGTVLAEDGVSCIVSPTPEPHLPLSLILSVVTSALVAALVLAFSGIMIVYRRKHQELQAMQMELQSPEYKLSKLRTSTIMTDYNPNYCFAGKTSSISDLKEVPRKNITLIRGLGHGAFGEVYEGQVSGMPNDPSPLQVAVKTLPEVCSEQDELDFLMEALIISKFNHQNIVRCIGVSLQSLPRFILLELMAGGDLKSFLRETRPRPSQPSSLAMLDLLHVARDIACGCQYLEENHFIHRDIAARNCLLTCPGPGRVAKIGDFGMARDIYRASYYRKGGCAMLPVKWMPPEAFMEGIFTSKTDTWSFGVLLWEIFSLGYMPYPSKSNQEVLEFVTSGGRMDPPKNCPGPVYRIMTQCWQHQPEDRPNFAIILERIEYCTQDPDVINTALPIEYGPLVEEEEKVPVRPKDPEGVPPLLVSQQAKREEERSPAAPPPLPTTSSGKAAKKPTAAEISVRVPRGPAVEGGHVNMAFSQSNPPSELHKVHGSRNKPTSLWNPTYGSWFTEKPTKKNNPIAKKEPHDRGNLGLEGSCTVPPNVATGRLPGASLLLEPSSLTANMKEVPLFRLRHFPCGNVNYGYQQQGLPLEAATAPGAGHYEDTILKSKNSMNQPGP

Turning to `COc1cc(-c2cncc(-c3ccc(N4CCN(C)CC4)cc3)c2C)cc(F)c1C(N)=O` [Compound 26a, 2-Fluoro-6-methoxy-4-(4-methyl-5-(4-(4-methylpiperazin-1-yl)phenyl)pyridin-3-yl)benzamide], the “% enzyme activity” value on CAMKK1 was determined as 92.05%; at Aurora C, 103.00%; at SYK it was 100.12%; on WNK3 it was 88.15%; on ALK, 99.31%; on STK38L/NDR2, 98.69%. For the same compound, the remaining activity at 1 µM on ERK7/MAPK15 was 86.8%; on ARAF it was 29.3%; on GLK/MAP4K3, 88.4%; at PKN2/PRK2, 94.5%.

For the compound `COc1cc(-c2cncc(-c3ccc(N4C[C@@H](C)N(C)[C@@H](C)C4)cc3)c2C)cc(F)c1C(N)=O` [Compound 26c, 2-Fluoro-6-methoxy-4-(4-methyl-5-(4-((3R,5S)-3,4,5-trimethylpiperazin-1-yl)phenyl)pyridin-3-yl)benzamide], the “% enzyme activity” value is 93.52% on CAMKK1; 99.34% on Aurora C; 101.24% at SYK; 92.59% on WNK3; 96.51% on ALK; 102.97% on STK38L/NDR2. The remaining activity at 1 µM on ERK7/MAPK15 was determined as 98.3%; at ARAF, 48.1%; at GLK/MAP4K3, 90.3%; at PKN2/PRK2, 95.9%.
